Source: patent US11214540B2, “Compositions for treating neurodegenerative diseases” (COGNITION THERAPEUTICS, INC., priority 2017, dated 2022)
Read-outs that look alike come from different tables or passages of the source.

Experiments:
[1] = target: Sigma-2 receptors on membranes from rat cerebral cortex (Rattus norvegicus (Rat), UniProt Q5U3Y7); test: Competitive Radioligand Binding Assay 1, Sigma-2 binding ([3H]DTG displacement with (+)pentazocine mask); details: sigma-2 receptor affinity; read-out: S2 Ki
Summary of the method: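 Displacement of [3H]DTG by test compounds from rat cerebral cortex membranes in presence of 300 nM (+)pentazocine masking sigma-1 sites; 10 μM haloperidol defines non-specific binding. Filtration and scintillation counting; Ki from displacement curves.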

[2] = target: Sigma-1 receptors on Jurkat cell membranes (Homo sapiens (Human), UniProt Q99720); test: Competitive Radioligand Binding Assay 1, Sigma-1 binding ([3H](+)pentazocine displacement); details: sigma-1 receptor affinity; read-out: S1 Ki
Procedure: Certain compounds were tested for interaction with several receptors by blocking the binding or action of their agonists or antagonists. Some compounds were tested to see whether they interact directly with known cellular receptor or signaling proteins. Compounds can be tested for the ability to displace binding of known agonists or antagonists of a given human receptor that was overexpressed in cell lines or isolated from tissue. Compounds can also be tested for the ability to block downstream signaling induced by agonists or antagonists of a given human receptor. Compounds can be tested for action at 100 known receptors, and it is desirable that specific activity will occur at only a small subset of CNS-relevant receptors.
For Sigma-1 binding, various concentrations of test compounds from 100 μM to 1 nM were used to displace 8 nM [3H](+)pentazocine from endogenous receptors on Jurkat cell membranes (Ganapathy M E et al. 1991, J Pharmacol. Exp. Ther. 289:251-260). 10 μM Haloperidol was used to define non-specific binding. […] (Bowen W D, et al. 1993, Mol. Neuropharmcol 3:117-126). 10 μM Haloperidol was used to define non-specific binding. Reactions were terminated by rapid filtration through Whatman GF/C filters using a Brandel 12R cell harvester followed by two washes with ice-cold buffer. Radioactivity on the dried filter discs was measured using a liquid scintillation analyzer (Tri-Carb 2900TR; PerkinElmer Life and Analytical Sciences). The displacement curves were plotted and the Ki values of the test compounds for the receptor subtypes were determined using GraphPad Prism (GraphPad Software Inc., San Diego, Calif.). The percentage specific binding was determined by dividing the difference between total bound (disintegrations per minute) and nonspecific bound (disintegrations per minute) by the total bound (disintegrations per minute). […]

potassium channel hERG = potassium channel hERG (Homo sapiens (Human), UniProt Q12809); test: In vitro testing for hERG inhibition; assay type: biochemical; details: in vitro toxicity potassium channel hERG
Procedure: In vitro testing for hERG inhibition was performed in a standard assay (See: Haverkamp W, Breithardt G, Carnm A J, Janse M J, Rosen M R, Antzelevitch C, Escande D, Franz M, Malik M, Moss A and Shah R. (2000) Eur Heat J 21 (15); 1216-31).

log P = assay type: physicochemical
Summary of the method: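 Ratio of un-ionized compound concentrations between octanol and water, with aqueous pH set so the un-ionized form predominates. Value given as the log of the octanol/water ratio.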

[3] = Mouse liver microsome (MLM) stability; assay type: in vitro ADME; details: microsomal stability in mouse liver microsomes (MLM)
Procedure: A first pharmacokinetic study was performed in microsomes of mice mouse liver microsomes, MLM).
Microsomal stability experiments and plasma stability experiments were performed to determine metabolic and hepatic stability of candidate compounds.

[4] = test system: Abeta oligomer-induced membrane trafficking deficits in primary hippocampal neurons; test: Membrane Trafficking/Exocytosis (MTT) assay, Abeta oligomer effect on neurons; assay type: cell-based, rat; details: membrane trafficking, read-out: EC50 Abeta;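 also: compound potency for inhibiting the Abeta oligomer effect on exocytosis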
Summary of the method: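 Rat E18 hippocampal neurons cultured 3 weeks received compound (100 uM to 0.001 nM), then vehicle or Abeta 1-42 oligomers (3 μM total Abeta), for 1-24 h at 37 °C. MTT was added for 1 h, and formazan vesicle exocytosis was quantified by automated imaging with DAPI toxicity check. Tukey-Kramer comparisons were made with N=4.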

Sequence of potassium channel hERG (Q12809 whole entry): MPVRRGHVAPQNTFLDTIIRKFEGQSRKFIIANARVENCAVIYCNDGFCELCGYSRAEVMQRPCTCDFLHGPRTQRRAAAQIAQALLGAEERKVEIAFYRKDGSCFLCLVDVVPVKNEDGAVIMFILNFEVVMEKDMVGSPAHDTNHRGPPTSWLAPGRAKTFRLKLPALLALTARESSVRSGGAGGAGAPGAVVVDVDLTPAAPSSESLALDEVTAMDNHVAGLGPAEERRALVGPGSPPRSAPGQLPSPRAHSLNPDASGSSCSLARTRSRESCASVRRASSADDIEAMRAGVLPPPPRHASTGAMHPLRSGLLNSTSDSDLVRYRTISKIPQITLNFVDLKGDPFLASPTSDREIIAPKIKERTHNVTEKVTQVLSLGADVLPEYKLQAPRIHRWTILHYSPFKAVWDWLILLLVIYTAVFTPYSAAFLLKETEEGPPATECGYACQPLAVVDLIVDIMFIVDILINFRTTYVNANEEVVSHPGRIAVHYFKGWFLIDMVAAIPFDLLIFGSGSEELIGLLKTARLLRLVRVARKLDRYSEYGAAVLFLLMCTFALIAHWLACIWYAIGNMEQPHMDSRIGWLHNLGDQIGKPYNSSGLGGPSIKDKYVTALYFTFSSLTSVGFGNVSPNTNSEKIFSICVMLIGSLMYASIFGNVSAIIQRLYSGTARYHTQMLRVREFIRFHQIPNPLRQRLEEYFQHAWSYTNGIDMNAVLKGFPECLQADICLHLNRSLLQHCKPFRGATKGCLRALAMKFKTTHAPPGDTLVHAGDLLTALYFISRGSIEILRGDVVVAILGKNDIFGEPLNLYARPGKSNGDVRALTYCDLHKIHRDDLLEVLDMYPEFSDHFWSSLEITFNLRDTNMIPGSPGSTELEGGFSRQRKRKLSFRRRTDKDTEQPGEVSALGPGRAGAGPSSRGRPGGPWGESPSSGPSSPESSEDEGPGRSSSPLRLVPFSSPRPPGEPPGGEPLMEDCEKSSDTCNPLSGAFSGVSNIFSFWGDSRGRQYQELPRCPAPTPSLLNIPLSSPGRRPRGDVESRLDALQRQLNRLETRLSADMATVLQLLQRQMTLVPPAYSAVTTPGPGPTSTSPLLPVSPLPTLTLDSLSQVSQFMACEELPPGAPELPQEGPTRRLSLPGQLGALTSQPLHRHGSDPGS
Sequence of Sigma-1 receptors on Jurkat cell membranes (Q99720 whole entry): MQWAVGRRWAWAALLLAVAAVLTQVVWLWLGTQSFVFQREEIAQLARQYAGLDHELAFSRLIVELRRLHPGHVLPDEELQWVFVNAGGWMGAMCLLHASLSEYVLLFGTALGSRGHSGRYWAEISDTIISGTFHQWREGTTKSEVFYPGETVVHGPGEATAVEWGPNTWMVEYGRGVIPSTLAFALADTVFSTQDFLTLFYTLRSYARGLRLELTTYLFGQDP
Sequence of Sigma-2 receptors on membranes from rat cerebral cortex (Q5U3Y7 whole entry): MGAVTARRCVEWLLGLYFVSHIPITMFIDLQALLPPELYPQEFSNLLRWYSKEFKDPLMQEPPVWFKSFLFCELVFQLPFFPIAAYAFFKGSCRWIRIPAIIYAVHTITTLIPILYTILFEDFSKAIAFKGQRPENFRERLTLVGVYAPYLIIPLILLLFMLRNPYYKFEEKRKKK

CC(C)=CC(CC(C)(C)c1ccc(Cl)cc1)N1CCC(C2CCN(C)CC2)CC1 (centres unmarked) [Compound 43]
Ki [1]: 74 nM
Ki [2]: 61 nM
IC50 (potassium channel hERG): 4900 nM
log P (log P): 6.37
MLM T1/2 [3]: 29 min
EC50 [4]: 300 nM

CC(C)=CC(CC(C)(C)c1ccc(Cl)cc1)N1CCC(F)CC1 (centres unmarked) [Compound 55]
Ki [1]: 120 nM
Ki [2]: 25 nM
IC50 (potassium channel hERG): 7200 nM
log P (log P): 5.47
MLM T1/2 [3]: 3.6 min
EC50 [4]: 2500 nM

CC(C)=CC(CC(C)(C)c1ccc(C(F)(F)F)cc1)N1CCOCC1 (centres unmarked) [Compound 72]
Ki [1]: 400 nM
Ki [2]: 770 nM
IC50 (potassium channel hERG): 80000 nM
log P (log P): 5.32
MLM T1/2 [3]: 2.1 min
EC50 [4]: 20000 nM

COc1ccc(C(C)(C)CC(C=C(C)C)NCCCC2CCOCC2)cc1 (centres unmarked) [Compound 106]
log P (log P): 5.35
MLM T1/2 [3]: 3.9 min
EC50 [4]: 20000 nM

CC(C)=CC(CC(C)(C)c1ccc(C(F)(F)F)cc1)N1CCC(CO)CC1 (centres unmarked) [Compound 35]
Ki [1]: 39 nM
Ki [2]: 56 nM
IC50 (potassium channel hERG): 13400 nM
log P (log P): 5.31
MLM T1/2 [3]: 60 min
EC50 [4]: 20000 nM

CC(C)=CC(CC(C)(C)c1ccc(Cl)cc1)N(C)CC1CCOCC1 (centres unmarked) [Compound 111]
log P (log P): 5.68
MLM T1/2 [3]: 6.8 min
EC50 [4]: 20000 nM

CC(C)=CC(CCc1ccc(Cl)cc1)N1CCCCC1 (centres unmarked) [Compound 96]
log P (log P): 5.52
MLM T1/2 [3]: 6.2 min
EC50 [4]: 1600 nM

COc1ccc(C(C)(C)CC(C=C(C)C)NCCC2CCOCC2)cc1 (centres unmarked) [Compound 102]
log P (log P): 4.9
MLM T1/2 [3]: 1.5 min
EC50 [4]: 20000 nM

CC(C)=CC(CC(C)(C)c1ccc(C)cc1)N1CCC2(CC1)COC2 (centres unmarked) [Compound 107]
log P (log P): 5.21
MLM T1/2 [3]: 3.5 min
EC50 [4]: 20000 nM

CC(C)=CC(CC(C)(C)c1ccc(C)cc1)N(C)C1CCOCC1 (centres unmarked) [Compound 109]
log P (log P): 5.13
MLM T1/2 [3]: 5.4 min
EC50 [4]: 20000 nM

CC(C)=CC(CC(C)(C)c1ccc(Cl)cc1)N1CCC2(CCOCC2)CC1 (centres unmarked) [Compound 41]
Ki [1]: 67 nM
Ki [2]: 16 nM
IC50 (potassium channel hERG): 4000 nM
log P (log P): 5.87
MLM T1/2 [3]: 35 min
EC50 [4]: 1600 nM

CC(C)=CC(CCc1ccc(C)cc1)N1CCOCC1 (centres unmarked) [Compound 93]
log P (log P): 4.36
MLM T1/2 [3]: 3.4 min
EC50 [4]: 20000 nM

COc1ccc(C(C)(C)CC(C=C(C)C)N(C)C2CCOCC2)cc1 (centres unmarked) [Compound 108]
log P (log P): 4.46
MLM T1/2 [3]: 7.3 min
EC50 [4]: 20000 nM

COc1ccc(CCC(C=C(C)C)N2CCOCC2)cc1 (centres unmarked) [Compound 104]
log P (log P): 3.69
MLM T1/2 [3]: 1.3 min
EC50 [4]: 20000 nM

CC(C)=CC(CC(C)(C)c1ccc(C(F)(F)F)cc1)N1CCC(C(F)(F)F)CC1 (centres unmarked) [Compound 70]
Ki [1]: 340 nM
Ki [2]: 33 nM
IC50 (potassium channel hERG): 16300 nM
log P (log P): 6.95
MLM T1/2 [3]: 14 min
EC50 [4]: 20000 nM

CC(C)=CC(CC(C)(C)c1ccc(Cl)cc1)N1CCC(O)CC1 (centres unmarked) [Compound 77]
Ki [1]: 800 nM
Ki [2]: 540 nM
IC50 (potassium channel hERG): 15200 nM
log P (log P): 4.58
MLM T1/2 [3]: 44 min
EC50 [4]: 20000 nM

CC(C)=CC(CC(C)(C)c1ccc(F)cc1)N1CCC(C)(O)CC1 (centres unmarked) [Compound 62]
Ki [1]: 230 nM
Ki [2]: 130 nM
IC50 (potassium channel hERG): 41000 nM
log P (log P): 4.4
MLM T1/2 [3]: 60 min
EC50 [4]: 800 nM

CC(C)=CC(CC(C)(C)c1ccc(F)cc1)N1CCC2(CCOCC2)CC1 (centres unmarked) [Compound 36]
Ki [1]: 40 nM
Ki [2]: 12 nM
IC50 (potassium channel hERG): 10000 nM
log P (log P): 5.41
MLM T1/2 [3]: 25 min
EC50 [4]: 20000 nM

CC(C)=CC(CC(C)(C)c1ccc(S(C)(=O)=O)cc1)N1CCC2(CCOCC2)CC1 (centres unmarked) [Compound 82]
Ki [1]: 2800 nM
Ki [2]: 380 nM
IC50 (potassium channel hERG): 100000 nM
log P (log P): 4.11
MLM T1/2 [3]: 60 min
EC50 [4]: 20000 nM

CC(C)=CC(CC(C)(C)c1ccc(F)cc1)N1CCC(CCO)CC1 (centres unmarked) [Compound 58]
Ki [1]: 160 nM
Ki [2]: 64 nM
IC50 (potassium channel hERG): 14000 nM
log P (log P): 4.94
MLM T1/2 [3]: 39 min
EC50 [4]: 500 nM

CC(C)=CC(CC(C)(C)c1ccc(C)cc1)NCCC1CCOCC1 (centres unmarked) [Compound 101]
log P (log P): 5.57
MLM T1/2 [3]: 1.8 min
EC50 [4]: 9600 nM

CC(C)=CC(CCc1ccc(Cl)cc1)N1CCC(C2CCOCC2)CC1 (centres unmarked) [Compound 105]
log P (log P): 5.72
MLM T1/2 [3]: 1.3 min
EC50 [4]: 20000 nM

CC(C)=CC(CC(C)(C)c1ccc(Cl)cc1)N1CCC(CCO)CC1 (centres unmarked) [Compound 53]
Ki [1]: 110 nM
Ki [2]: 74 nM
IC50 (potassium channel hERG): 13300 nM
log P (log P): 5.41
MLM T1/2 [3]: 28 min
EC50 [4]: 20000 nM

CC(C)=CC(CCc1ccc(C)cc1)N1CCCCC1 (centres unmarked) [Compound 94]
log P (log P): 5.43
MLM T1/2 [3]: 1.8 min
EC50 [4]: 20000 nM

CC(C)=CC(CC(C)(C)c1ccc(C(F)(F)F)cc1)N1CCC(O)CC1 (centres unmarked) [Compound 38]
Ki [1]: 42 nM
Ki [2]: 190 nM
IC50 (potassium channel hERG): 16200 nM
log P (log P): 4.85
MLM T1/2 [3]: 84 min
EC50 [4]: 4500 nM

CC(C)=CC(CCc1ccc(F)cc1)N1CCC(C2CCOCC2)CC1 (centres unmarked) [Compound 21]
Ki [1]: 6.2 nM
Ki [2]: 8 nM
IC50 (potassium channel hERG): 830 nM
log P (log P): 5.26
MLM T1/2 [3]: 11 min
EC50 [4]: 20000 nM

CC(C)=CC(CC(C)(C)c1ccc(Cl)cc1)N1CCC(C2CCOCC2)CC1 (centres unmarked) [Compound 11]
Ki [1]: 2.2 nM
IC50 (potassium channel hERG): 1500 nM
log P (log P): 6.31
MLM T1/2 [3]: 26, min.
EC50 [4]: 3000 nM

CC(C)=CC(CC(C)(C)c1ccc(Cl)cc1)N1CCC(C)(C)CC1 (centres unmarked) [Compound 31]
Ki [1]: 28 nM
Ki [2]: 41 nM
IC50 (potassium channel hERG): 10900 nM
log P (log P): 6.7
MLM T1/2 [3]: 21 min
EC50 [4]: 700 nM

CC(C)=CC(CC(C)(C)c1ccc(Cl)cc1)N1CCC(C)(O)CC1 (centres unmarked) [Compound 73]
Ki [1]: 410 nM
Ki [2]: 29 nM
IC50 (potassium channel hERG): 24000 nM
log P (log P): 4.86
MLM T1/2 [3]: 87 min
EC50 [4]: 700 nM

COc1ccc(CCC(C=C(C)C)N2CCCCC2)cc1 (centres unmarked) [Compound 103]
log P (log P): 4.76
MLM T1/2 [3]: 1.1 min
EC50 [4]: 20000 nM

CC(C)=CC(CC(C)(C)c1ccc(F)cc1)N1CCCCC1 (centres unmarked) [Compound 68]
Ki [1]: 300 nM
Ki [2]: 500 nM
IC50 (potassium channel hERG): 27000 nM
log P (log P): 5.65
MLM T1/2 [3]: 11 min
EC50 [4]: 20000 nM

CC(C)=CC(CC(C)(C)c1ccc(C(F)(F)F)cc1)N1CCC(C2CCOCC2)CC1 (centres unmarked) [Example 9]
Ki [1]: 1.8 nM
Ki [2]: 13 nM
IC50 (potassium channel hERG): 1000 nM
logP (log P; octanol/water): 6.58
half-life ([3]; read-out: MLM T1/2): 114 min
EC50 ([4]; Rattus norvegicus, Hippocampal neuron): 500 nM

COc1ccc(C(C)(C)CC(C=C(C)C)N(C)CC2CCOCC2)cc1 (centres unmarked) [Compound 113]
log P (log P): 4.92
MLM T1/2 [3]: 8.2 min
EC50 [4]: 20000 nM

CC(C)=CC(CC(C)(C)c1ccc(F)cc1)N1CCC(O)CC1 (centres unmarked) [Compound 79]
Ki [1]: 940 nM
Ki [2]: 1200 nM
IC50 (potassium channel hERG): 29000 nM
log P (log P): 4.12
MLM T1/2 [3]: 74 min
EC50 [4]: 1900 nM

COCCCC1CCN(C(C=C(C)C)CC(C)(C)c2ccc(Cl)cc2)CC1 (centres unmarked) [Compound 23]
Ki [1]: 9.2 nM
Ki [2]: 140 nM
IC50 (potassium channel hERG): 2200 nM
log P (log P): 6.49
MLM T1/2 [3]: 8.2 min
EC50 [4]: 950 nM

CC(C)=CC(CCc1ccc(Cl)cc1)N1CCOCC1 (centres unmarked) [Compound 95]
log P (log P): 4.45
MLM T1/2 [3]: 1.5 min
EC50 [4]: 20000 nM
